The values below are quoted from earlier work in patent US20140018386A1, “LAQUINIMOD FORMULATIONS WITHOUT ALKALIZING AGENT” (Teva Pharmaceutical Industries, Ltd., priority 2012, published 2014).

Structures are written as SMILES.

The conditions of data set [1]: in vivo.
The test system of data set [2] is acute experimental autoimmune encephalomyelitis (aEAE) model. The settings on record: in vivo.
The test system of data set [3] is various experimental inflammatory/autoimmune animal models. The settings on record: EAE, DSS colitis, NOD mice, EAN, SLE, lupus nephritis, lupus arthritis, Crohn's Disease, Rheumatoid arthritis.

`CCN(C(=O)c1c(O)c2c(Cl)cccc2n(C)c1=O)c1ccccc1` [Laquinimod sodium]: in data set [1], the Oral bioavailability entry is on record as “high oral bioavailability”.

As to `CCN(C(=O)c1c(O)c2c(Cl)cccc2n(C)c1=O)c1ccccc1` [Laquinimod, N-ethyl-N-phenyl-1,2-dihydro-4-hydroxy-5-chloro-1-methyl-2-oxoquinoline-3-carboxamide], the “Effect in the aEAE model” value in data set [2] is on record as “effective”. Besides, the Therapeutic effect entry in data set [3] is “demonstrated therapeutic effect”. In the data set with relapsing MS, the “Development of active MRI lesions” value is recorded as “can reduce development of active MRI lesions”.
